Assay results: patent publication US11286268B1, “EIF4E-inhibiting compounds and methods” (EFFECTOR THERAPEUTICS, INC., priority 2019, dated 2022)
Like-named read-outs stand apart in the source and are kept apart here.

Target: recombinant eIF4E (Homo sapiens (Human), UniProt P06730)
Assay: Fluorescence polarization competition assay for eIF4E binding potency
Summary of the method: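 Competitive displacement format: compounds compete with a fluorescent m7GDP tracer (20 nM) for 75 nM recombinant eIF4E. Incubation is 30 min at room temperature, protected from light, with 1% DMSO. Polarization read gives IC50 over eight 3-fold concentrations.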

[1] = fluorescence polarization competition, 75 nM recombinant eIF4E, 20 nM EDA-m7GDP-ATTO-550, IC50 class, read-out: elF4E FP
[2] = inhibition of eIF4E/EDA-m7GDP-ATTO-550 binding by 50%, Table 4B calculated values, read-out: IC50
[3] = inhibition of eIF4E/EDA-m7GDP-ATTO-550 binding, calculated IC50 values, Table 4B, read-out: IC50

Chain of recombinant eIF4E (P06730 whole entry): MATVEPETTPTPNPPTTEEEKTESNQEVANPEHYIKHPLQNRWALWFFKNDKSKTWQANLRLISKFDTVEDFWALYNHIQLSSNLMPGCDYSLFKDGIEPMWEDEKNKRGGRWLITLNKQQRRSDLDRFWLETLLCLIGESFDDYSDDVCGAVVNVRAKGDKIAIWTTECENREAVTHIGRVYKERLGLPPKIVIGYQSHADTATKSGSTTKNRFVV

## Cc1nc2cc(F)cc(C#N)c2c(=O)n1CCOc1ccc(Cl)cc1-c1cccc(C(=O)O)c1 [compound 167]
[1]
  IC50: 50 to 1000 nM
[2]
  IC50: 101 nM

## Cc1cc(-c2cc(Cl)ccc2OCCn2c(C)nc3cc(C(F)(F)F)c(-c4ccnc(C)n4)nc3c2=O)c2scc(C(=O)O)c2n1 [compound 769]
[1]
  IC50: < 50 nM
[2]
  IC50: 23.9 nM

## N#Cc1cccc2nc(C(F)F)n(CCOc3ccc(Cl)cc3-c3ccc(C(=O)O)c4ccsc34)c(=O)c12 [compound 191]
[1]
  IC50: 50 to 1000 nM
[2]
  IC50: 144 nM

## Cc1nc2cc(C(F)(F)F)cc(C(F)F)c2c(=O)n1CCOc1ccc(Cl)cc1-c1ccnc2c(C(=O)O)csc12 [compound 220]
[1]
  IC50: 50 to 1000 nM
[2]
  IC50: 213 nM

## Cc1nc2cnc(N3CC4(C3)CN(C3CCCC3)C4)c(C#N)c2c(=O)n1CCOc1ccc(Cl)cc1-c1ccnc2c(C(=O)O)csc12 [compound 1369]
[3]
  IC50: 13.2 nM

## Cc1nc2c(N3CCN(C4(C(F)F)COC4)CC3)ncc(C#N)c2c(=O)n1CCOc1ccc(Cl)cc1-c1ccnc2c(C(=O)O)csc12 [compound 1397]
[3]
  IC50: 14.7 nM

## Cc1nc2ccc(S(=O)(=O)NCc3ccccc3)c(C#N)c2c(=O)n1CCOc1ccc(Cl)cc1-c1ccnc2c(C(=O)O)csc12 [compound 252]
[1]
  IC50: < 50 nM
[2]
  IC50: 42 nM

## Cc1nc2cc(C(F)(F)F)c(N3CCN(C)CC3)cc2c(=O)n1CCOc1ccc(Cl)cc1-c1ccnc2c(C(=O)NS(C)(=O)=O)csc12 [compound 1299]
[3]
  IC50: 32.1 nM

## Cc1ccc(-c2cc(Cl)ccc2OCCn2c(C)nc3c(C#N)nc(-c4ccccn4)c(C)c3c2=O)c2scc(C(=O)O)c12 [compound 743]
[1]
  IC50: 50 to 1000 nM
[2]
  IC50: 188 nM

## N#Cc1cc2c(=O)n(CCOc3ccc(Cl)cc3-c3ccc(F)c(C(=O)O)c3F)cnc2cn1 [compound 91]
[1]
  IC50: 50 to 1000 nM
[2]
  IC50: 287 nM

## Cc1cnc(C)c(-c2nc3c(=O)n(CCOc4ccc(Cl)cc4-c4cc(C)nc5c(C(=O)O)csc45)c(C)nc3cc2C(F)(F)F)n1 [compound 1022]
[1]
  IC50: < 50 nM
[2]
  IC50: 42.4 nM

## Cc1cc(-c2cc(Cl)ccc2OCCn2c(C)nc3cnc(N(C)C4CCN(CC(C)(F)F)CC4)c(C#N)c3c2=O)c2scc(C(=O)O)c2n1 [compound 1563]
[3]
  IC50: 13 nM

## Cc1cc(-c2cc(Cl)ccc2OCCn2c(C)nc3cc(C(F)(F)F)c(-c4nccnc4C(F)(F)F)nc3c2=O)c2scc(C(=O)O)c2n1 [compound 990]
[1]
  IC50: < 50 nM
[2]
  IC50: 32.2 nM

## Cc1cc(-c2c(C(F)(F)F)cc3nc(C)n(CCOc4ccc(Cl)cc4-c4cc(C)nc5c(C(=O)O)csc45)c(=O)c3c2C#N)nc(C)n1 [compound 963]
[1]
  IC50: < 50 nM
[2]
  IC50: 7.84 nM

## Cc1cc(-c2cc(Cl)ccc2OCCn2c(C)nc3cc4c(c(C#N)c3c2=O)CC(N(C)C)C4)c2scc(C(=O)O)c2n1 (stereo not shown) [compound 611]
[1]
  IC50: < 50 nM
[2]
  IC50: 7.76 nM

## CCN(c1ncc2nc(C)n(CC#Cc3ccc(Cl)cc3-c3ccnc4c(C(=O)NS(=O)(=O)CC(C)(C)C#N)csc34)c(=O)c2c1C#N)C1CCN(C2COC2)CC1 [compound 1737]
[3]
  IC50: 14.3 nM

## Cc1nc2cnc(N(C)C3C[C@H]4C[C@@H]3CN4CC(C)(F)F)c(C#N)c2c(=O)n1CC#Cc1ccc(Cl)cc1-c1ccnc2c(C(=O)O)csc12 (stereo partly shown) [compound 1689]
[3]
  IC50: 22.2 nM

## Cc1cc(-c2cc(Cl)ccc2OCCn2c(C)nc3cc(C(F)F)c(N(C)C)c(C#N)c3c2=O)c2scc(C(=O)O)c2n1 [439a]
[2]
  IC50: 2.87 nM

## Cc1c(O)c2cc(C(F)(F)F)cc(C#N)c2c(=O)n1CCOc1ccc(Cl)cc1-c1ccnc2c(C(=O)O)csc12 [compound 310]
[1]
  IC50: 50 to 1000 nM
[2]
  IC50: 97.7 nM

## N#Cc1cc2c(=O)n(CCOc3ccc(Cl)cc3-c3ccnc(C(=O)O)c3)cnc2cn1 [compound 29]
[1]
  IC50: 50 to 1000 nM
[2]
  IC50: 211 nM

## Cc1nc2cnc(N3CCN(C4(COC(F)F)CC4)CC3)c(C#N)c2c(=O)n1CC#Cc1ccc(Cl)cc1-c1ccnc2c(C(=O)O)csc12 [compound 1510]
[3]
  IC50: 20.1 nM

## Cc1sc2c(-c3cc(Cl)ccc3OCCn3c(C)nc4cc(S(C)(=O)=O)c(N5CCN(C)CC5)c(C#N)c4c3=O)ccnc2c1C(=O)O [compound 1294]
[3]
  IC50: 55.9 nM

## CCc1cc(-c2cc(Cl)ccc2OCCn2c(C)nc3cnc(-c4ccccc4)c(C#N)c3c2=O)c2scc(C(=O)O)c2n1 [compound 1016]
[1]
  IC50: < 50 nM
[2]
  IC50: 1.11 nM

## Cc1nc2cnc(N(C)C3CCN(CC(C)(F)F)CC3)c(C#N)c2c(=O)n1CC#Cc1ccc(Cl)cc1-c1ccnc2c(C(=O)NS(=O)(=O)CC(F)(F)F)csc12 [compound 1595]
[3]
  IC50: 54.8 nM

## Cc1cc(-c2cc(Cl)ccc2OCCn2c(C)nc3cc(C(F)(F)F)cc(C#N)c3c2=O)c2sc(C)c(C(=O)O)c2n1 [compound 668]
[1]
  IC50: < 50 nM
[2]
  IC50: 7.76 nM

## N#Cc1cc2c(=O)n(CCOc3ccc(Cl)cc3-c3ccc(OC(F)(F)F)c(C(=O)O)c3)cnc2cn1 [compound 113]
[1]
  IC50: 50 to 1000 nM
[2]
  IC50: 804 nM

## Cc1cc(C(=O)O)c(C#N)c(-c2cc(Cl)ccc2OCCn2cnc3cnc(C#N)cc3c2=O)n1 [compound 116]
[1]
  IC50: > 1000 nM
[2]
  IC50: > 3000 nM

## Cc1cc(-c2cc(Cl)ccc2OCCn2c(C)nc3cc(C(F)(F)F)c(C#N)nc3c2=O)c2scc(C(=O)O)c2n1 [compound 785]
[1]
  IC50: < 50 nM
[2]
  IC50: 18.2 nM

## Cc1nc2cnc(N3CCN4CCC3C4)c(C#N)c2c(=O)n1CCOc1ccc(Cl)cc1-c1ccnc2c(C(=O)O)csc12 (stereo not shown) [compound 1348]
[3]
  IC50: 12.2 nM

## Cc1cc(-c2cc(Cl)ccc2OCCn2c(C)cc3cnc(N(C)C)c(C#N)c3c2=O)c2scc(C(=O)O)c2n1 [compound 1002]
[1]
  IC50: < 50 nM
[2]
  IC50: 2.37 nM

## Cc1cc(-c2cc(Cl)ccc2OCCn2c(C)nc3ccc(C(F)(F)CN(C)C)c(C#N)c3c2=O)c2scc(C(=O)O)c2n1 [compound 529]
[1]
  IC50: < 50 nM
[2]
  IC50: 5.78 nM

## Cc1nc2cc(C(F)(F)F)c(N3CCN(C4CC4)CC3)c(C#N)c2c(=O)n1CCOc1ccc(Cl)cc1-c1ccnc2c(C(=O)NS(C)(=O)=O)csc12 [compound 1179]
[1]
  IC50: < 50 nM
[2]
  IC50: 14.7 nM

## Cc1cc(-c2cc(Cl)ccc2OCCn2c(C)nc3cc(C(F)(F)F)c(Oc4cccnc4)c(C#N)c3c2=O)c2scc(C(=O)O)c2n1 [compound 1035]
[1]
  IC50: < 50 nM

## Cc1cc(-c2cc(Cl)ccc2OCCn2c(C)nc3cc(Cl)c(N(C)c4cncc(F)c4)c(C#N)c3c2=O)c2scc(C(=O)O)c2n1 [compound 961]
[1]
  IC50: < 50 nM
[2]
  IC50: 21.1 nM

## Cc1nc2cc(C(F)(F)F)c(CN3[C@@H]4CC[C@H]3COC4)c(C#N)c2c(=O)n1CCOc1ccc(Cl)cc1-c1ccnc2c(C(=O)O)csc12 [compound 523]
[1]
  IC50: < 50 nM
[2]
  IC50: 23.9 nM

## Cc1sc2c(-c3cc(Cl)ccc3OCCn3c(C)nc4cnc(N5CCN(C)CC5)c(C#N)c4c3=O)ccnc2c1C(=O)O [compound 1282]
[3]
  IC50: 38.2 nM

## Cc1cc(-c2cc(Cl)ccc2OCCn2c(C)nc3cc(C(F)(F)F)c(-c4nn(C)cc4C)c(C#N)c3c2=O)c2scc(C(=O)O)c2n1 [compound 1027]
[1]
  IC50: < 50 nM
[2]
  IC50: 31.5 nM

## Cc1nc2cc(S(C)(=O)=O)c(N3CCN(C)CC3)c(C#N)c2c(=O)n1CCOc1ccc(Cl)cc1-c1ccnc2c(C(=O)O)csc12 [compound 1296]
[3]
  IC50: 27 nM

## COc1ccc(S(=O)(=O)NC(=O)c2csc3c(-c4cc(Cl)ccc4C#CCn4c(C)nc5cnc(N(C)C6CCN(CC(C)(F)F)CC6)c(C#N)c5c4=O)ccnc23)cn1 [compound 1681]
[3]
  IC50: 8.27 nM

## Cc1cc(-c2cc(Cl)ccc2OCCn2c(C)nc3cc4c(c(C#N)c3c2=O)CCC4N(C)C)c2scc(C(=O)O)c2n1 (stereo not shown) [compound 613]
[1]
  IC50: < 50 nM
[2]
  IC50: 7.89 nM

## N#Cc1cc2c(=O)n(CCOc3ccc(Cl)cc3-c3ccc(C#N)c(C(=O)O)c3)cnc2cn1 [compound 94]
[1]
  IC50: > 1000 nM
[2]
  IC50: 1420 nM

## Cc1nc2cnc(-c3cccc4c3CCN(CC(F)F)C4)c(C#N)c2c(=O)n1CC#Cc1ccc(Cl)cc1-c1ccnc2c(C(=O)O)csc12 [compound 1558]
[3]
  IC50: 69 nM

## Cc1nc2cnc(C3(F)CCN(C)CC3)c(C#N)c2c(=O)n1CCOc1ccc(Cl)cc1-c1ccnc2c(C(=O)O)csc12 [compound 1264]
[3]
  IC50: 12.4 nM

## N#Cc1cc2c(=O)n(CCOc3ccc(Cl)cc3-c3cc(CCO)cc(C(=O)O)c3)cnc2cn1 [compound 106]
[1]
  IC50: > 1000 nM
[2]
  IC50: 1380 nM

## Cc1nc2cc(C(F)(F)F)cc(C#N)c2c(=O)n1CCOc1ccc(Cl)cc1-c1cncc2c(C(=O)O)csc12 [compound 319]
[1]
  IC50: 50 to 1000 nM
[2]
  IC50: 53.5 nM

## Cc1cc(-c2cc(Cl)ccc2OCCn2c(C)nc3cc(C(F)F)c(C)c(C#N)c3c2=O)c2scc(C(=O)O)c2n1 [compound 627]
[1]
  IC50: < 50 nM
[2]
  IC50: 6.72 nM

## Cc1cc(-c2cc(Cl)ccc2OCCn2c(C)nc3c(F)c(C(F)(F)F)cc(C#N)c3c2=O)c2scc(C(=O)O)c2n1 [compound 589]
[1]
  IC50: < 50 nM
[2]
  IC50: 4.45 nM

## Cc1nc2cnc(N(C)[C@H]3[C@@H]4CN(CC(F)F)C[C@@H]43)c(C#N)c2c(=O)n1CC#Cc1ccc(Cl)cc1-c1ccnc2c(C(=O)O)csc12 [compound 1403]
[3]
  IC50: 8.76 nM

## O=C(O)c1cccc(-c2cc(Cl)ccc2OCCn2c(Nc3ccccc3)nc3c(Cl)nccc3c2=O)c1 [compound 2001]
[3]
  IC50: 65800 nM

## Cc1cc(-c2cc(Cl)ccc2OCCn2c(C)nc3c(C)nc(-c4cc(F)ccc4F)c(C#N)c3c2=O)c2scc(C(=O)O)c2n1 [compound 998]
[1]
  IC50: < 50 nM
[2]
  IC50: 45.1 nM

## Cc1nc2cnc(N3CC4(CN(CCF)C4)C3)c(C#N)c2c(=O)n1CC#Cc1ccc(Cl)cc1-c1ccnc2c(C(=O)O)csc12 [compound 892]
[1]
  IC50: < 50 nM
[2]
  IC50: 36 nM

## Cc1nc2cnc(N3CCN(CCCOC(F)F)CC3)c(C#N)c2c(=O)n1CC#Cc1ccc(Cl)cc1-c1ccnc2c(C(=O)O)csc12 [compound 1509]
[3]
  IC50: 37.5 nM

## Cc1nc2cnc(CCCN(C)CCF)c(C#N)c2c(=O)n1CCOc1ccc(Cl)cc1-c1ccnc2c(C(=O)O)csc12 [compound 1345]
[3]
  IC50: 34.5 nM
